Marks after values point to notes of the source that are not given here.
Assays:
male Wister rats [1] = assay: Effect on total cholesterol levels in rats; assay type: in vivo, rat; conditions: for Serum cholesterol, LSMEAN: least squares mean; for Serum cholesterol, mean: mean ± SD
Experimental: The effect of the DHA ethyl ester of Example 2 on cholesterol levels was investigated using male Wister rats, and was compared to DHASCO-T® and Lovaza®. The rats were administered either (a) a vehicle control, (b) DHA ethyl ester (0.6 g/kg/day, 1.3 g/kg/day, 2.5 g/kg/day, or 5.0 g/kg/day), (c) DHASCO-T (5.0 g/kg/day), or (d) Lovaza (5.0 g/kg/day) for 28 days. Cholesterol levels, i.e., total cholesterol, of the rats were measured at 14 days and 28 days. Total cholesterol values shown are averages for each treatment group, i.e., actual mean values.
The cholesterol results presented below in Table 10 are calculated from the same data set as in Table 9. Cholesterol level values shown in Table 10 are averages for each treatment group, presented as least squares mean values.

[2] = rat, in vivo
Description: The plasma DHA fatty acid area percent and plasma EPA fatty acid area percent were determine in the rats at day 1 and day 29 (post necropsy).

male Wister rats [3] = assay: Effect on triglyceride levels in high fructose diet rats; assay type: in vivo, rat; conditions: for Triglycerides, mean: oral gavage, mean ± SD; for Serum triglycerides, LSMEAN: least squares mean
Description: The effect of the DHA ethyl ester (DHA-EE) produced according to the method of Example 2 on triglyceride levels was investigated using male Wister rats. The DHA-EE used in this example contained DHA at about 93.6% (w/w) of the total fatty acid content of the dosage form. The effect of purified DHA-EE was compared to two different DHA-containing products: DHASCO-T® (Martek Bioscience Corporation, Columbia, Md.) and Lovaza® (Reliant Pharmaceuticals, Inc., Durham, N.C.). DHASCO-T® comprises approximately 45% DHA and 55% other fatty acids (with substantially no EPA). Lovaza® comprises approximately 41.7% DHA ethyl ester, 51.7% EPA ethyl ester, and 6.4% other fatty acids. The vehicle control comprised corn oil. 84 Wistar rats were randomized into 7 groups of 12 rats each. Each rat was administered orally a high fructose diet for 4-5 weeks to raise triglyceride levels. After 4-5 weeks, rats with a triglyceride level <300 mg/dL were excluded. Then each rat was administered either (a) a vehicle control, (b) DHA ethyl ester (0.6 g/kg/day, 1.3 g/kg/day, 2.5 g/kg/day, or 5.0 g/kg/day), (c) DHASCO-T (5.0 g/kg/day), or (d) Lovaza (5.0 g/kg/day) for 28 days by oral gavage. Diets were controlled for calories, nutrients and levels of vitamin E. Triglyceride levels of the rats were measured at 14 days and 28 days. Triglyceride values shown are averages for each treatment group, presented as actual mean values.
The triglyceride results presented below in Table 8 are calculated from the same data set as in Table 7. Triglyceride values shown in Table 8 are averages for each treatment group, presented as least squares mean values.

[4] = 14 day, 0.6 g/kg/day fatty acid
[5] = 14 day, 1.3 g/kg/day fatty acid
[6] = 14 day, 2.5 g/kg/day fatty acid
[7] = 14 day, 5.0 g/kg/day fatty acid
[8] = 28 day, 0.6 g/kg/day fatty acid
[9] = 28 day, 1.3 g/kg/day fatty acid
[10] = 28 day, 2.5 g/kg/day fatty acid
[11] = 28 day, 5.0 g/kg/day fatty acid

CC/C=C\C/C=C\C/C=C\C/C=C\C/C=C\C/C=C\CCC(=O)OCC [DHA-EE, ethyl docosahexaenoate]
Serum cholesterol % of control, LSMEAN (male Wister rats [1]; [4]): 80 % of control
Serum cholesterol % of control, mean (male Wister rats [1]; [4]): 79 % of control
Serum cholesterol, LSMEAN (male Wister rats [1]; [4]): 72.4 mg/dL
Serum cholesterol, mean (male Wister rats [1]; [4]): 72.2 ± 17.7 mg/dL
Serum cholesterol % of control, LSMEAN (male Wister rats [1]; [5]): 82 % of control
Serum cholesterol % of control, mean (male Wister rats [1]; [5]): 82 % of control
Serum cholesterol, LSMEAN (male Wister rats [1]; [5]): 74.6 mg/dL
Serum cholesterol, mean (male Wister rats [1]; [5]): 75.0 ± 24.0 mg/dL
Serum cholesterol % of control, LSMEAN (male Wister rats [1]; [6]): 85 % of control
Serum cholesterol % of control, mean (male Wister rats [1]; [6]): 85 % of control
Serum cholesterol, LSMEAN (male Wister rats [1]; [6]): 77.4 mg/dL
Serum cholesterol, mean (male Wister rats [1]; [6]): 77.6 ± 23.1 mg/dL
Serum cholesterol % of control, LSMEAN (male Wister rats [1]; [7]): 75 % of control
Serum cholesterol % of control, mean (male Wister rats [1]; [7]): 74 % of control
Serum cholesterol, LSMEAN (male Wister rats [1]; [7]): 67.8 mg/dL
Serum cholesterol, mean (male Wister rats [1]; [7]): 67.1 ± 17.9 mg/dL
Serum cholesterol % of control, LSMEAN (male Wister rats [1]; [8]): 80 % of control
Serum cholesterol % of control, mean (male Wister rats [1]; [8]): 80 % of control
Serum cholesterol, LSMEAN (male Wister rats [1]; [8]): 80.6 mg/dL
Serum cholesterol, mean (male Wister rats [1]; [8]): 80.3 ± 21.8 mg/dL
Serum cholesterol % of control, LSMEAN (male Wister rats [1]; [9]): 62 % of control
Serum cholesterol % of control, mean (male Wister rats [1]; [9]): 62 % of control
Serum cholesterol, LSMEAN (male Wister rats [1]; [9]): 61.6† mg/dL
Serum cholesterol, mean (male Wister rats [1]; [9]): 62.0 ± 16.0 mg/dL
Serum cholesterol % of control, LSMEAN (male Wister rats [1]; [10]): 72 % of control
Serum cholesterol % of control, mean (male Wister rats [1]; [10]): 72 % of control
Serum cholesterol, LSMEAN (male Wister rats [1]; [10]): 71.3† mg/dL
Serum cholesterol, mean (male Wister rats [1]; [10]): 71.5 ± 17.8 mg/dL
Serum cholesterol % of control, LSMEAN (male Wister rats [1]; [11]): 60 % of control
Serum cholesterol % of control, mean (male Wister rats [1]; [11]): 60 % of control
Serum cholesterol, LSMEAN (male Wister rats [1]; [11]): 60.9† mg/dL
Serum cholesterol, mean (male Wister rats [1]; [11]): 60.2 ± 19.3 mg/dL
Effect on cholesterol levels (in words) (male Wister rats [1]; by 14 days, even at the lowest dosage level): reduces cholesterol levels
Plasma DHA fatty acid area percent (in words) [2]: correlates with increasing dosing of DHA
Plasma EPA fatty acid area percent (in words) [2]: does not increase in rats administered DHA-EE or DHASCO® to the same extent that it is increased in Lovaza®
Serum triglycerides % of control, LSMEAN (male Wister rats [3]; [4]): 65 % of control
Triglycerides % of control, mean (male Wister rats [3]; [4]): 67 % of control
Triglycerides, mean (male Wister rats [3]; [4]): 176.5 ± 96.4 mg/dL
Serum triglycerides, LSMEAN (male Wister rats [3]; [4]): 168.4† mg/dL
Serum triglycerides % of control, LSMEAN (male Wister rats [3]; [5]): 67 % of control
Triglycerides % of control, mean (male Wister rats [3]; [5]): 66 % of control
Triglycerides, mean (male Wister rats [3]; [5]): 175.2 ± 50.6 mg/dL
Serum triglycerides, LSMEAN (male Wister rats [3]; [5]): 173.6† mg/dL
Serum triglycerides % of control, LSMEAN (male Wister rats [3]; [6]): 47 % of control
Triglycerides % of control, mean (male Wister rats [3]; [6]): 44 % of control
Triglycerides, mean (male Wister rats [3]; [6]): 115.5 ± 60.9 mg/dL
Serum triglycerides, LSMEAN (male Wister rats [3]; [6]): 120.2† mg/dL
Serum triglycerides % of control, LSMEAN (male Wister rats [3]; [7]): 43 % of control
Triglycerides % of control, mean (male Wister rats [3]; [7]): 37 % of control
Triglycerides, mean (male Wister rats [3]; [7]): 97.6 ± 47.8 mg/dL
Serum triglycerides, LSMEAN (male Wister rats [3]; [7]): 110.7† mg/dL
Serum triglycerides % of control, LSMEAN (male Wister rats [3]; [8]): 93 % of control
Triglycerides % of control, mean (male Wister rats [3]; [8]): 95 % of control
Triglycerides, mean (male Wister rats [3]; [8]): 182.7 ± 86.9 mg/dL
Serum triglycerides, LSMEAN (male Wister rats [3]; [8]): 174.5 mg/dL
Serum triglycerides % of control, LSMEAN (male Wister rats [3]; [9]): 60 % of control
Triglycerides % of control, mean (male Wister rats [3]; [9]): 60 % of control
Triglycerides, mean (male Wister rats [3]; [9]): 114.7 ± 37.2 mg/dL
Serum triglycerides, LSMEAN (male Wister rats [3]; [9]): 113.1† mg/dL
Serum triglycerides % of control, LSMEAN (male Wister rats [3]; [10]): 60 % of control
Triglycerides % of control, mean (male Wister rats [3]; [10]): 56 % of control
Triglycerides, mean (male Wister rats [3]; [10]): 107.9 ± 58.4 mg/dL
Serum triglycerides, LSMEAN (male Wister rats [3]; [10]): 112.6† mg/dL
Serum triglycerides % of control, LSMEAN (male Wister rats [3]; [11]): 47 % of control
Triglycerides % of control, mean (male Wister rats [3]; [11]): 41 % of control
Triglycerides, mean (male Wister rats [3]; [11]): 78.9 ± 46.5 mg/dL
Serum triglycerides, LSMEAN (male Wister rats [3]; [11]): 87.6† mg/dL
Effect on triglyceride levels (in words) (male Wister rats [3]; at 14 days, even at the lowest dosage level (0.6 g/kg/day)): reduces triglyceride levels
Triglyceride levels versus control (in words) (male Wister rats [3]; day 28, 0.6 g DHA-EE): not significantly lower than control

Reference: patent publication US20100130608A1, “COMPOSITIONS AND METHODS FOR REDUCING TRIGLYCERIDE LEVELS” (Martek Biosciences Corporation, priority 2008, published 2010)
